This is an account of results in patent US20110294892A1, “Use of histone deacetylase inhibitors for the care of Philadephia-negative myeloproliferative syndromes” (priority 2008, published 2011).

Read-outs that look alike come from different tables or passages of the source.

One assay deals with rhHDAC1 (Homo sapiens, UniProt Q13547). The assay can be described thus: biochemical.
Assay [1] relates to JAK2^V617F mutated human cell line SET-2. The experiment in a line: Cloning efficiency of the human cell line SET-2 in methyl-cellulose. In kind it is cell-based. The conditions noted are these: SET-2, 336 h; for EC50: read-out: EC50 (concentration required to reduce of 50% the number of clones). The text has this:
For each experimental point 2 Petri dishes were done.

The test system of assay [2] is patients with JAK2^V617F mutation suffering from myeloproliferative syndromes (PV, ET, IM). The experiment in a line: Phase II open clinical study in JAK2V617F-positive Philadelphia-negative myeloproliferative syndromes. In kind it is in vivo, human. The conditions noted are these: 50 mg twice per day. The text has this: Clinical study of ITF2357 in patients suffering from Philadelphia-negative myeloproliferative syndromes. Design: phase II, open, non-randomized study.
Population in the study: 27 patients with the JAK2^V617F mutation suffering from myeloproliferative syndromes not adequately controlled by the standard pharmacological treatment (hydroxyurea).
Duration of the treatment: up to a maximum of 24 weeks of continual administration.
Secondary objective: to evaluate the effect of the treatment on the mutated JAK2 allele burden by quantitative PCR.

Assay [3] relates to stem cells obtained from patients suffering from PV or ET. The conditions noted are these: cited from earlier work.
Assay [4] has as its system LPS-induced serum TNFα and IFNγ. The conditions noted are these: mice, oral administration of 1.0 to 10 mg/kg; cited from earlier work.
For assay [5], the system named is lipopolysaccharide (LPS)-stimulated cultured human peripheral blood mononuclear cells (PBMCs). The conditions noted are these: cited from earlier work.

Sequence of rhHDAC1 (Q13547 whole entry): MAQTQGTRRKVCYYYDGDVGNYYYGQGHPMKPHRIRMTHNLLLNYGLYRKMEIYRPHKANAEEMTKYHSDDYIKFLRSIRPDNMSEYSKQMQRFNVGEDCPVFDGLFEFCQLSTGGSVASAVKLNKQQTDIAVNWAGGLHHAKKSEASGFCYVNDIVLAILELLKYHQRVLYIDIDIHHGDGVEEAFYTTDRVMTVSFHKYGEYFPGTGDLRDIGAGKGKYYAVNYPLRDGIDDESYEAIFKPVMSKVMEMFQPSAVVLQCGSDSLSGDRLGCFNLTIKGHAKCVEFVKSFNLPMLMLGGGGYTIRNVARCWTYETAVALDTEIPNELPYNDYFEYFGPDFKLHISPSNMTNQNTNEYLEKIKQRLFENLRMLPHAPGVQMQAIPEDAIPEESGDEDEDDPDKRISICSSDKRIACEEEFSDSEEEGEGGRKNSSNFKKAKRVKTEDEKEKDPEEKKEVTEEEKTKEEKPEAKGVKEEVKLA
Procedure for rhHDAC1: Values for rhHDAC1 inhibition are also reported: the enzyme was obtained from BPS Biosciences (cat n. 50001) and the test was carried out using a BIOMOL kit, according to supplier instructions.

For orientation: inhibition means how much of the control response was suppressed. For the molecule `CC(=O)SCC(=O)c1ccc(NS(=O)(=O)c2ccc(OCCCN(C)C)cc2)nc1` [KD-5170], the IC50 against rhHDAC1 amounted to 24 nM. For the same molecule, the inhibition at 1 µM in assay [1] (read-out: inhibition of clones formation at 1 μM) is below 20%.

Turning to `Nc1ccccc1NC(=O)c1ccc(CNc2nccc(-c3cccnc3)n2)cc1` [MGCD-0103], in assay [1], the EC50 is 1200 nM.

As to `Nc1ccccc1NC(=O)c1ccc(CNC(=O)OCc2cccnc2)cc1` [SNDX-275], in assay [1], the EC50 stood at 1820 nM.

On to `CCN(CC)Cc1ccc2cc(COC(=O)Nc3ccc(C(=O)NO)cc3)ccc2c1` [ITF2357, Diethyl-[6-(4-hydroxycarbamoyl-phenylcarbamoyloxymethyl)-naphthalen-2-ylmethyl]-ammonium chloride], for which the “volume of the spleen” value in assay [2] (4 to 12 weeks, patients who initially exhibited splenomegaly) is listed as “significant reduction”. The “complete or partial response, share of cases” value in assay [2] (preliminary data, treatment 4 to 12 weeks, PV, ET or myelofibrosis patients) is on record as “approximately 60%”. For the same molecule, the “concentrations inhibiting the clonogenic activity of stem cells” value in assay [3] is on record as “sub-micromolar”. Also, the EC50 in assay [1] lay in the range of 28 to 54 nM. Further, in assay [4], the “reduction of LPS-induced serum IFNγ” value is given as “more than 50%” and the “reduction of LPS-induced serum TNFα” value was “more than 50%”. For the same molecule, the IC50 in assay [5] (read-out: concentration reducing by 50% the production of interferon-γ (IFNγ)) is 25 nM. Moreover, in assay [5] (read-out: concentration reducing by 50% the release of intracellular interleukin (IL)-1α), the IC50 is 12 nM.
